Measured values: ChEMBL document CHEMBL3046094, “Predicting anti-HIV activity of 1,1,3-trioxo[1,2,4]-thiadiazine (TTD) derivatives: 3D QSAR approach” (Med Chem Res, 2009)

These molecules were tested on Human immunodeficiency virus 1 (assay: Antiviral activity against Human immunodeficiency virus 1 infected human MT4 cells assessed as inhibition of virus-induced cytopathic effect by MTT assay). Details: Human immunodeficiency virus 1, MT4.
Format: functional, organism-based
In the case of `C#CCN1C(=O)N(Cc2cccc(Cl)c2)S(=O)(=O)c2cscc21`, the EC50 is reported as 90 nM. In the case of `C=CCN1C(=O)N(Cc2ccccc2)S(=O)(=O)c2cscc21`, the EC50 is reported as 6300 nM. `CN1C(=O)N(Cc2cccc(Cl)c2)S(=O)(=O)c2cscc21` showed an EC50 of 2100 nM. `CCN1C(=O)N(Cc2cccc(Cl)c2)S(=O)(=O)c2cscc21` showed an EC50 of 90 nM. `N#CCN1C(=O)N(Cc2cccc(F)c2)S(=O)(=O)c2cscc21` was tested, and the EC50 was 300 nM. Molecule `N#CCCN1C(=O)N(Cc2ccccc2)S(=O)(=O)c2cscc21` has an EC50 of 4900 nM. For `O=C1N(c2cccc(Cl)c2)c2cscc2S(=O)(=O)N1Cc1ccccc1`, the EC50 was 1400 nM. With `C#CCN1C(=O)N(Cc2ccccc2)S(=O)(=O)c2cscc21` the EC50 was 960 nM. `CCN1C(=O)N(c2cccc(Cl)c2)S(=O)(=O)c2cscc21` gave an EC50 of 61300 nM. `CN1C(=O)N(Cc2ccccc2)S(=O)(=O)c2cscc21` showed an EC50 of 2700 nM. `CCN1C(=O)N(Cc2ccccc2Cl)S(=O)(=O)c2cscc21` showed an EC50 of 7600 nM. Work on `O=C1N(Cc2ccccc2)c2cscc2S(=O)(=O)N1CCc1ccccc1` yielded an EC50 of 41400 nM. `N#CCN1C(=O)N(Cc2cccc(Br)c2)S(=O)(=O)c2cscc21` was tested, and the EC50 was 50 nM. `CCN1C(=O)N(Cc2ccccn2)S(=O)(=O)c2cscc21` was tested, and the EC50 was 1100 nM. Work on `N#CCN1C(=O)N(CCc2ccccc2)S(=O)(=O)c2cscc21` yielded an EC50 of 10900 nM. For `O=C1N(Cc2ccccc2)c2cscc2S(=O)(=O)N1Cc1ccccn1`, the EC50 was 200 nM. Molecule `CCN1C(=O)N(CCc2ccccc2)S(=O)(=O)c2cscc21` has an EC50 of 3600 nM. Work on `CCCN1C(=O)N(Cc2ccccc2)S(=O)(=O)c2cscc21` yielded an EC50 of 6100 nM. `N#CCN1C(=O)N(Cc2cccc(Cl)c2)S(=O)(=O)c2cscc21` was tested, and the EC50 was 100 nM. `CCOC(=O)CN1C(=O)N(Cc2ccccc2)S(=O)(=O)c2cscc21` showed an EC50 of 7300 nM. With `N#CCN1C(=O)N(Cc2ccccn2)S(=O)(=O)c2cscc21` the EC50 was 400 nM. `CCN1C(=O)N(Cc2ccccc2)S(=O)(=O)c2cscc21` was tested, and the EC50 was 2400 nM. In the case of `N#CCN1C(=O)N(Cc2cc(F)cc(F)c2)S(=O)(=O)c2cscc21`, the EC50 is reported as 8600 nM. For `N#CCN1C(=O)N(Cc2ccccc2)S(=O)(=O)c2cscc21`, the EC50 was 870 nM. `N#CCN1C(=O)N(Cc2cccnc2)S(=O)(=O)c2cscc21` gave an EC50 of 800 nM. `O=C1N(c2ccccc2Cl)c2cscc2S(=O)(=O)N1Cc1ccccc1` gave an EC50 of 100 nM. For `O=C1N(c2ccc(Cl)cc2)c2cscc2S(=O)(=O)N1Cc1ccccc1`, the EC50 was 7400 nM. `O=C1N(Cc2ccccc2)c2cscc2S(=O)(=O)N1Cc1ccccc1` showed an EC50 of 2200 nM.
